Assay results: publication PMC12034907 (Journal of Clinical Pharmacology, 2024)
“Also recorded” adds a separate entry of the source. Read-outs that look alike come from different tables or passages of the source. Marks after values point to notes of the source that are not given here.

Experiments:
[1] = tested on: CYP3A4
[2] = tested on: CYP3A; conditions: cited from earlier work; for effect of CYP3A inhibitor on midazolam exposure: interaction studies; for midazolam exposure relative to baseline exposure: studies with CYP3A inducers
[3] = tested on: CYP2C9; conditions: liver metabolism; cited from earlier work
[4] = cited from earlier work
[5] = tested on: CYP3A4; conditions: liver metabolism; cited from earlier work
[6] = Clinical DDI study: safety and tolerability; type: in vivo, human; conditions: for AEs leading to death / AEs leading to treatment discontinuation / Related AEs / Serious AEs / Severity of AE: Mild / Severity of AE: Moderate / Severity of AE: Severe / AEs: by period, safety population; for AEs: participants who experienced AEs
[7] = tested on: CYP2C19; conditions: liver metabolism; cited from earlier work
[8] = midazolam 5 mg + mavacamten 15 mg on day 17, geometric mean (geometric CV%)
[9] = midazolam 5 mg oral alone (day 1), geometric mean (geometric CV%)
[10] = with mavacamten vs midazolam alone

In the case of `OCc1ncc2n1-c1ccc(Cl)cc1C(c1ccccc1F)=NC2` [1′‐Hydroxymidazolam, 1′‐hydroxymidazolam], the “tmax, median (range)” value (midazolam 5 mg + mavacamten 15 mg on day 17, n = 12) is reported as 0.51 (0.50‐1.0) h, the AUC0-inf [8] is reported as 47.76 (36.3) (n = 7) ^b ng∙h/mL and the t1/2 [8] is reported as 5.22 (29.9) (n = 7) ^b h. For the same molecule, the “tmax, median (range)” value (midazolam 5 mg oral alone (day 1), n = 13) was 1.00 (0.50‐2.08) h, the AUC0-last (midazolam 5 mg oral alone (day 1), n = 13, geometric mean (geometric CV%)) was 38.63 (22.2) ng∙h/mL and the AUC0-inf [9] was 41.47 (24.1) (n = 10) ^b ng∙h/mL. The t1/2 [9] was 6.48 (24.7) (n = 10) ^b h, the “increase in AUC0-inf” value [1, 10] was 20% and the “increase in AUC0-last” value [1, 10] was 11%. The “increase in Cmax” value [1, 10] was 28%.

For `CC(=O)N1CCN(c2ccc(OCC3COC(Cn4ccnc4)(c4ccc(Cl)cc4Cl)O3)cc2)CC1` (centres unmarked) [ketoconazole], the “effect of CYP3A inhibitor on midazolam exposure” value [2] is listed as “increases in midazolam exposure”.

For `NC(=O)N1c2ccccc2C=Cc2ccccc21` [carbamazepine], the “midazolam exposure relative to baseline exposure” value [2] is listed as “below 10%”.

For `O=C1NC(=O)C(c2ccccc2)(c2ccccc2)N1` [phenytoin], the “midazolam exposure relative to baseline exposure” value [2] is listed as “below 10%”.

In the case of `CC(C)n1c(=O)cc(N[C@@H](C)c2ccccc2)[nH]c1=O` [Mavacamten], the “share of metabolism by CYP2C9” value [3] is given as 8%, the estimated oral bioavailability [4] is given as “at least 85%” and the “median time to maximum plasma concentration (tmax)” value [4] is given as 1 to 2 h. The “share of metabolism by CYP3A4” value [5] was 18%, the “effect of mavacamten on midazolam exposure (CYP3A4 induction)” value ([1]; clinically relevant mavacamten exposures, healthy participants) was “negligible effect; also recorded: did not meet the criteria for induction” and the “AEs leading to death” value [6] was 0 n (%). For the same molecule, the “AEs leading to treatment discontinuation” value [6] was 0 n (%), the “Related AEs” value [6] was 5 (38.5) n (%) and the “Serious AEs” value [6] was 0 n (%). The “Severity of AE: Mild” value [6] was 9 (69.2) n (%), the “Severity of AE: Moderate” value [6] was 1 (7.7) n (%) and the “Severity of AE: Severe” value [6] was 0 n (%). The tolerability ([6]; healthy participants) was “well tolerated”, the AEs [6] was 9 (69.2) n (%) and the “share of metabolism by CYP2C19” value [7] was 74%.

With `Cc1ncc2n1-c1ccc(Cl)cc1C(c1ccccc1F)=NC2` [Midazolam] the Tmax (human, plasma, oral, tmax, midazolam alone or with mavacamten) was under 1 h, the AUC(0-t) (human, plasma, po, 5 mg) was 51 ng·h/mL and the t1/2 [8] was 4.84 (34.4) (n = 9) ^a h. The t1/2 [9] was 5.28 (39.3) h, the “decrease in AUC0-inf” value [1, 10] was 13% and the “decrease in AUC0-last” value [1, 10] was 24%. The “decrease in Cmax” value [1, 10] was 7%, the “AEs leading to death” value [6] was 0 n (%) and the “AEs leading to treatment discontinuation” value [6] was 0 n (%). For the same molecule, the “Related AEs” value [6] was 2 (15.4) n (%), the “Serious AEs” value [6] was 0 n (%) and the “Severity of AE: Mild” value [6] was 3 (23.1) n (%). For the same molecule, the “Severity of AE: Moderate” value [6] was 0 n (%), the “Severity of AE: Severe” value [6] was 0 n (%) and the AEs [6] was 3 (23.1) n (%).

In the case of `C[C@@H](c1ncncc1F)[C@](O)(Cn1cncn1)c1ccc(F)cc1F` [voriconazole], the “effect of CYP3A inhibitor on midazolam exposure” value [2] is listed as “increases in midazolam exposure”.
